Results from patent US9833520B2, “Labeled, non-peptidic, multivalent integrin antagonist compounds; methods for synthesis and uses thereof” (The Methodist Hospital Research Institute, priority 2011, dated 2017).
Entries after “also recorded” stand apart in the source; their conditions may differ. Read-outs that look alike come from different tables or passages of the source.

Columns and labels:
[1] = target: T1, purified human αvβ3 (Homo sapiens, UniProt P05106+P06756); assay: ELISA: competitive inhibition of biotinylated vitronectin binding to immobilized purified integrin αvβ3; conditions: for higher binding affinity as compared to monomer 1 (IA): compared to IA 1
T1 construct: purchased Chemicon International, Temecula, Calif., USA
Procedure: In vitro Binding Assay. […] Purified integrin αvβ3 protein (Chemicon International, Temecula, Calif., USA) was applied to 96-well polystyrene microtiter plates at 0.1 μg/well. After overnight incubation at 4° C., the plates were washed, and then blocked with milk solution (KPL, Inc. Gaithersburg, Md., USA) at room temperature for 2 hr. The blocking buffer was removed, and the plates were inoculated in quadruplicate with bivalent IAs with a typical starting concentration of 125 nM. Serial dilutions were prepared in the 96-well plates using multichannel pipettes. Biotinylated vitronectin solution (0.1 μg/well) was added to each well as a standard competitor. The plates were incubated at room temperature for 3 h, washed, and the bound vitronectin was detected using NeutrAvidin-HRP conjugate at 0.01 μg/well (Pierce, Rockford, Ill., USA) and LumiGlo® chemiluminescent substrate system (KPL, Inc.). The luminescence was read using a FLUOstar™ OPTIMA Microplate Reader (Durham, N.C., USA). […] (Peptides International, Inc., Louisville, Ky., USA) was also tested using the same method as described above.
Briefly, purified integrin αvβ3 protein (Chemicon International, Temecula, Calif., USA) was applied to 96-well polystyrene microtiter plates for overnight incubation at 4° C. The plates were washed and then blocked with milk solution (KPL, Inc., Gaithersburg, Md., USA) and the plates were inoculated in quadruplicate with multivalent IAs at different concentrations. Biotinylated vitronectin solution was added to each well as a standard competitor. The plates were incubated at room temperature, washed, and the bound vitronectin detected using NeutrAvidin-HRP® conjugate (Pierce, Rockford, Ill., USA) and LumiGlo® chemiluminescent substrate system (KPL, Inc., Gaithersburg, Md., USA). The luminescence was read using a FLUOstar® OPTIMA Microplate Reader (Durham, N.C., USA).
In vitro Binding Affinity Assay. Purified integrin αvβ3 protein (Chemicon International, Temecula, Calif., USA) was applied to 96-well polystyrene microtiter plates at 1 μg/well. After overnight incubation at 4° C., the plates were washed and then blocked with milk solution (KPL, Inc., Gaithersburg, Md., USA) at room temperature for 2 hr. The blocking buffer was removed, and the plates were inoculated in quadruplicate with bivalent IAs with a typical starting concentration of 125 nM. Serial dilutions were prepared in the 96-well plates using multichannel pipettes. Biotinylated vitronectin solution (0.1 μg/well) was added to each well as a standard competitor.
The plates were incubated at room temperature for 3 hr, washed, and the bound vitronectin was detected using NeutrAvidin-HRP conjugate at 0.01 μg/well (Pierce, Rockford, Ill., USA) and LumiGlo® chemiluminescent substrate system (KPL, Inc.). The luminescence was read using a FLUOstar OPTIMA Microplate Reader (Durham, N.C., USA). […] It measured competitive binding of the integrin antagonist and biotinylated human vitronectin for the immobilized receptor αvβ3.

[2] = system: U-87 MG (ATCC HTB-14) glioblastoma cells over-expressing integrin αvβ3; assay: Fluorescence microscopy probe binding assay in U-87 cells; format: cell-based, human; conditions: 200 nM, 37° C., 45 min, confocal microscopy
Procedure: Fluorescence Microscopy Studies. […] For fluorescence microscopy studies, 1×10^4 U-87 cells were cultured on 35 mm MatTek glass bottom culture dishes. After 24 hr, cells were washed with PBS and then incubated with bivalent-IA-Cy5.5 (200 nM) at 37° C. for 45 min. Integrin specificity of the probe binding was verified by incubating U-87 cells with and without a blocking dose of the non-fluorescent bivalent IA (20 μmol/L). After the incubation period, the cells were washed three times with ice-cold PBS. The fluorescence signal of the cells was recorded using FluoView® 1000 Laser Scanning Confocal Microscope (Olympus, Center Valley, Pa., USA) under a 40× oil-immersion objective, with laser excitation at 675 nm (Cy5.5). A differential interference contrast image was also recorded so that the origin of fluorescent signals could be confirmed.

[3] = system: U-87 xenograft tumors; assay: In vivo and ex vivo NIR fluorescence imaging of U-87 xenograft tumor-bearing mice
Procedure: U-87 MG Xenograft Model, Animal procedures were performed according to approved protocols. Female athymic nude mice (nu/nu), obtained from Charles River Laboratories, Inc. (Cambridge, Mass., USA) at 4-6 weeks of age, were injected subcutaneously in the right rear thigh with 1×10^7 U-87 MG cells suspended in 100 μL of phosphate-buffered saline (PBS). The cancer cells were harvested from sub-confluent cultures with 0.25% trypsin. Trypsinization was stopped with DMEM containing 10% FBS, after which the cells were washed once in serum-free medium and resuspended in PBS. Trypan blue exclusion was performed to ensure >90% cell viability. The tumor bearing mice were subjected to in vivo imaging studies when the tumors reached 0.4-0.6 cm in diameter.
In vivo Fluorescence Imaging of Tumors. ˜3×10^6 U-87 cells were implanted bilaterally in the posterior flanks of immunocompromised (nu/nu) mice and grown to ˜4 to 6 mm in diameter. Imaging was carried out in groups of five mice. After palpable masses were detected, animals were manually restrained and imaging probes were intravenously administered (lateral tail vein) using a 30-Ga needle via aseptic technique. Free Cy5.5 was prepared by dissolving the same Cy5.5NHS ester used for labeling the bivalent IA (GE Healthcare, Piscatway, N.J., USA) in phosphate buffered saline (PBS), pH 7.4 overnight at 4° C. Stock concentration of free Cy5.5 was measured optically using the molar extinction coefficient of 250000M-1 cm-1 using a UV-visible spectrophotometer at the maximum absorbance wavelength (675 nm) as recommended by the manufacturer. The bivalent-IA-Cy5.5 was weighed and confirmed by spectrophotometric measurement. Appropriate dilutions of each probe were made in PBS, pH 7.4, and each was filter sterilized (0.2-μm) immediately prior to use. All animals weighed between 18 and 20 g, and each received 10 nmol of imaging probe (in a total volume of 100 μL). Fluorescence imaging was performed with a small animal-dedicated optical imaging system (Xenogen/Caliper IVIS-200, Mountain View, Calif., USA) under continuous 1.5-2.0% isoflurane delivered through the integrated anesthesia nosecone system. At 2-, 4-, 7-, 24-, and 48-hrs' post-injection, images were acquired with the surface of the tissue of interest (tumor) approximating a perpendicular viewing angle relative to the camera line of sight; this viewing angle was also used for normal tissue selection.
For determining tumor contrast, mean fluorescence intensities of the tumor area (T) defined as radiance (photons/sec/cm2/sr) at the right rear leg of the animal and of the area (N) at the right flank (normal tissue) were calculated by region-of-interest (ROI) analysis using the corresponding photograph of each image acquisition dataset to identify the tumor region. Pre-injection imaging was also performed to determine baseline autofluorescence. For competitive inhibition studies, mice (n=3) were co-injected with 500 nmol bivalent IA and 10 nmol of imaging probe (bivalent-IA-Cy5.5) following the same procedure described above. Free Cy5.5 studies were performed in the same manner following the intravenous injection of 10 nmol. For ex vivo biodistribution imaging, two tumor-bearing mice were imaged 24 hrs post injection of bivalent-IA-Cy5.5 and thereafter euthanized per IACUC protocol (CO2 and cervical dislocation). Tumor and major internal organs (heart, lung, liver, spleen, gastrointestinal tract, and kidneys) were harvested, weighed, and imaged against a black paper background. All image acquisition parameters were as follows: epi-illumination; Cy5.5 Em/Ex; Bin: (HR)4, FOV: 12.9; f2; 0.2 sec.

[4] = Example 2, PEG-linked ligands, averages of at least three determinations, read-out: In vitro EL1SA IC50

O=C(NCCS(=O)(=O)N[C@@H](CNC(=O)c1ccc(OCCNC2=NCCCN2)cc1)C(=O)O)OCCOCCOCCOCCOC(=O)NCCS(=O)(=O)N[C@@H](CNC(=O)c1ccc(OCCNC2=NCCCN2)cc1)C(=O)O [Compound 4]
IC50 [1, 4]: 0.16 nM

CC[N+]1=C(/C=C/C=C/C=C2/N(CCCCCC(=O)NC(CCCCCC(=O)NCCS(=O)(=O)N[C@@H](CNC(=O)c3ccc(OCCNC4=NCCCN4)cc3)C(=O)O)C(=O)NCCS(=O)(=O)N[C@@H](CNC(=O)c3ccc(OCCNC4=NCCCN4)cc3)C(=O)O)c3ccc4c(S(=O)(=O)O)cc(S(=O)(=O)O)cc4c3C2(C)C)C(C)(C)c2c1ccc1c(S(=O)(=O)[O-])cc(S(=O)(=O)O)cc21 (stereo partly drawn) [bivalent-IA-Cy5.5]
IC50 ([1]; Example 1 bivalent IA study, FIG. 4, read-out: IC50 of vitronectin binding to αvβ3 (ELISA)): 0.13 ± 0.02 nM
endocytosis / binding of probe in U-87 cells [2]: endocytosis of the imaging probes; also recorded: integrin-mediated endocytosis
endocytosis / binding of probe in U-87 cells ([2]; listed as Bivalent-IA-Cy5.5 conjugate): Receptor-mediated endocytosis was observed
endocytosis / binding of probe in U-87 cells ([2]; listed as bivalent-IA-Cy5.5 conjugate): integrin-mediated endocytosis
tumor fluorescence signal / accumulation ([3]; 10 nmol i.v.): increased signal in tumor sites at 7, 24, and 48 hrs; also recorded: modest accumulation at the tumor site
tumor-to-normal tissue (T/N) fluorescence ratio, average maximum ([3]; 10 nmol i.v., plateau at 24 hr, n=5): ~1.84
ex vivo signal per mass of tissue (biodistribution) ([3]; 24 hrs post-injection, two animals): The highest signal per mass of tissue was observed for the tumor
blood-pool / circulation clearance rate ([3]; inferred from fluorescence): relatively slow blood-pool clearance rate; also recorded: relatively slow clearance of the probe from the circulation
route of clearance ([3]; inferred from kidney fluorescence signal, 24 hrs): mainly renal clearance
hepatic metabolism ([3]; inferred from minimal liver signal, 24 hrs): low hepatic metabolism

O=C(NCCS(=O)(=O)N[C@@H](CNC(=O)c1ccc(OCCNC2=NCCCN2)cc1)C(=O)O)OCCOCCOCCOCCOCCOCCOCCOCCOC(=O)NCCS(=O)(=O)N[C@@H](CNC(=O)c1ccc(OCCNC2=NCCCN2)cc1)C(=O)O [Compound 5]
IC50 [1, 4]: 0.16 nM

CC(C)(CNC(=O)OCCOCCOCCOC(=O)NCC(C)(C)COC(=O)NCCS(=O)(=O)N[C@@H](CNC(=O)c1ccc(OCCNC2=NCCCN2)cc1)C(=O)O)COC(=O)NCCS(=O)(=O)N[C@@H](CNC(=O)c1ccc(OCCNC2=NCCCN2)cc1)C(=O)O [Compound 6]
IC50 [1, 4]: 0.09 nM
higher affinity as compared to the corresponding monomer 2 ([1]; compared to IAC 2): ~23 fold

CC(C)(CNC(=O)OCCOCCOCCOCCOCCOCCOCCOCCOC(=O)NCC(C)(C)COC(=O)NCCS(=O)(=O)NC(CNC(=O)c1ccc(OCCNC2=NCCCN2)cc1)C(=O)O)COC(=O)NCCS(=O)(=O)NC(CNC(=O)c1ccc(OCCNC2=NCCCN2)cc1)C(=O)O (stereo not drawn) [Compound 8]
IC50 [1, 4]: 0.32 nM

CC(C)(CN)COC(=O)NCCS(=O)(=O)N[C@@H](CNC(=O)c1ccc(OCCNC2=NCCCN2)cc1)C(=O)O [IAC 2]
IC50 [1, 4]: 2.07 nM
higher binding affinity as compared to monomer 1 (IA) [1]: about 10 fold
higher binding affinity as compared to monomer 1 (IA) ([1]; listed as 2): 10 fold

O=C(NCCS(=O)(=O)N[C@@H](CNC(=O)c1ccc(OCCNC2=NCCCN2)cc1)C(=O)O)OCCOCCOCCOC(=O)NCCS(=O)(=O)N[C@@H](CNC(=O)c1ccc(OCCNC2=NCCCN2)cc1)C(=O)O [Compound 3]
IC50 [1, 4]: 0.16 nM

CC(C)(CNC(=O)OCCOCCOCCOCCOC(=O)NCC(C)(C)COC(=O)NCCS(=O)(=O)N[C@@H](CNC(=O)c1ccc(OCCNC2=NCCCN2)cc1)C(=O)O)COC(=O)NCCS(=O)(=O)N[C@@H](CNC(=O)c1ccc(OCCNC2=NCCCN2)cc1)C(=O)O [Compound 7]
IC50 [1, 4]: 0.11 nM

CCN1\C(=C/C=C/C=C/C2=[N+](CCCCCC(=O)O)c3ccc4c(S(=O)(=O)O)cc(S(=O)(=O)O)cc4c3C2(C)C)C(C)(C)c2c1ccc1c(S(=O)(=O)[O-])cc(S(=O)(=O)O)cc21 [free Cy5.5, reference compound]
tumor fluorescence signal / accumulation ([3]; 10 nmol i.v.): slightly higher than the background but is lower than that achieved with the bivalent-IA-Cy5.5
